Where no end group is shown, it is not given here.
Tests used:
human skin explants = assay: CPD formation in UV-irradiated human skin explants; type: cell-based
Method: Human skin removed at elective surgery was cleaned, dissected and cut into pieces of approx. 5 mm×5 mm. Each piece was placed in a well of a 96 well plate, with individual plates prepared to assess the effects 3 hrs post treatment. All samples were performed in triplicate for each treatment. Skin was subjected to UV-radiation from solar-simulated UV source for 1.5 h (UVR), or non-irradiation (SHAM). Given that human skin is thicker than mouse skin, human skin explants were exposed to a radiation dose three times higher than that used for mouse skin, i.e., 20 J/cm2 versus 7 J/cm^2, respectively, and the output spectrum of the laboratory solar simulator has previously been reported (Rybchyn M S et al, J Invest Dermatol. 2018 May; 138 (5): 1146-1156) and treated immediately after with a vehicle control, Calcitriol (1 nM) or the polypeptide IK34720 (SEQ ID NO: 3) at concentrations of 50 μM, 250 μM or 500 μM.
Samples harvested at 3 hrs were fixed, section, stained and quantified as described in Example 5.

[1] = test system: MM1418-C1 lightly pigmented melanoma cells; assay: melanin content after UVB, melanoma cells; type: cell-based; conditions: 10 μM for 24 hours prior to 2 kJ/m2 UVB; measured 24 hours later; relative to untreated UVB cells
Method: (§1) In brief, MM1418-C1 lightly pigmented melanoma cells or human primary melanocytes were grown in 24 well culture plates and treated with 10 μM
(§2) RSKAKNPLYRRRRRRRRR (“IK-3”) for 24 hours prior to being exposed to 2 kJ/m2 UVB radiation. Controls (not treated with RSKAKNPLYRRRRRRRRR) labelled “Con” and “UVB”, respectively, were exposed to either 0 or 2 KJ/m2 UVB radiation. Cell groups were returned to the incubator for 24 hours and then the levels of melanin and protein in the cells were measured spectrophotometrically. In each experiment triplicate samples were measured. Data shown in FIG. 19 indicate the average values+SEM (μg melanin/mg cell protein) exposed to 0 or 2 KJ/m2 UVB which had been pre-treated with 0 or 10 μM of RSKAKNPLYRRRRRRRRR 24 hours prior to being exposed to UVB radiation. The t-test (2-tailed) was used to determine statistical significance, *p<0.05, ***p<0.001.

[2] = test system: human primary melanocytes; assay: melanin content after UVB, primary melanocytes; type: cell-based; conditions: 10 μM for 24 hours prior to 2 kJ/m2 UVB; measured 24 hours later; relative to untreated UVB cells
Method: as §1, §2

TGFβRII = TGFβRII expression by Western analysis in UV-irradiated dermal fibroblasts; type: cell-based, human; conditions: 1-10 μM added immediately following UV; 5 h post UV treatment; primary fibroblasts
Method: Human skin dermal fibroblasts were cultured from keratome biopsies of healthy adult human skin. Cells were between passages three and six. For UV irradiation, subconfluent cells were washed once with phosphate-buffered saline (PBS) and irradiated with UV. Immediately following irradiation, negative control (vehicle) or 1 μM, 2.5 μM, 5 μM and 10 μM of IK34720 (“IK” in FIG. 3B, SEQ ID NO: 3) were added to the cell cultures.
For Western analysis, nuclear extracts were prepared, membrane fractions were prepared and resolved on 8% SDS-polyacrylamide gel electrophoresis, transferred to polyvinylidene difluoride membrane, and reacted with primary antibodies. Blots were visualized and quantified.

Skh: hr1 hairless mice = assay: CPD (thymine dimer) immunohistochemistry in UV-irradiated mouse skin; type: in vivo; conditions: topical immediately after UVR; IK34720 20, 100 or 200 μg, Calcitriol 11.4 pmol/cm2; 3 hours post-UVR; vs vehicle
Method: Female Skh: hr1 hairless mice were exposed to solar simulated UV-irradiation as described above at Example 4. Immediately after irradiation mice were treated topically on the dorsal surface also as described in Example 4. Subsequently, skin was fixed at 3 hours post-UVR, and subjected to immuno-histochemical staining using the antibody directed against thymine dimers (CPD) described above at 10 μg/ml. […] In FIG. 9, dark staining in nuclei indicates the presence of thymine dimers (CPD), and the % area stained is presented. Immunohistology was quantified as per Example 4.

Smad4 = Smad4 expression in UV treated cells (data not shown); type: cell-based
primary keratinocytes = assay: CPD detection by IHC in keratinocytes 3 h following UV-irradiation; type: cell-based
Method: An in vitro assay was conducted allowing for densitometry analysis of CPD detection by IHC in keratinocytes 3 h following UV-irradiation in accordance with the following protocol.
Keratinocytes were harvested and cultured as described above at Example 2. Samples were split into two groups, being UV irradiated (UVR) and non-UV irradiated (SHAM). UV-irradiation was performed by solar simulated UV-irradiation for cells, also as described above at Example 2. Irradiation solution was PBS containing 5 mM D-glucose. […]
Harvested keratinocytes were plated on poly-D-lysine coated coverslips in 96 well plates and irradiated (or sham treated) as described above in at Example 2 in PBS containing 5 mM D-glucose. Keratinocytes were fixed 3 h after UV-irradiation. Immunohistochemistry and image analysis were performed as described previously (Gordon-Thomson et al., Photochem Photobiol Sci, 2012, 11 (12): 1837-47; Gupta et al., vide supra, Rybchyn M S et al., J Invest Dermatol, 2018; 138 (5): 1146-1156). Thymine dimers were detected using the anti-thymine dimer antibody (Sigma-Aldrich, Missouri, USA) at 10 μg/mL, and quantified as an index of CPD, as previously described (Douki T and Cadet J, Biochemistry, 2001, 40 (8): 2495-501).
Following irradiation, keratinocytes were treated with either Calcitriol, vehicle control (Veh) or the polypeptide IK34720 (SEQ ID NO: 3; “IK”) IK14800; (RSKAKNPLYRRRRRRRRR), RSKAKNPLY (IK94000) and RRRRRRRRR (IK00900), at concentrations of 5 μM.

[3] = 5 μM after ssUV, fixed 3 h after UV

## RSKAKNPLYRRRRRRRRR (not fully specified (some residues)) [IK34720]
Human skin explants; 500 μM, 3 hrs post irradiation, two individuals
  percentage of CPD positive cells: statistically significantly reduced
Human skin explants; 3 hrs post irradiation/treatment, Calcitriol 1 nM, IK34720 50, 250 or 500 μM
  cells stained for CPDs: fewer stained cells
[1]
  melanin content: significantly decreased melanin content
[2]
  melanin content: significantly decreased melanin content
TGFβRII
  TGFβRII expression in UV treated cells: restored TGFβRII expression
Skh: hr1 hairless mice
  CPD formation in the skin (% area stained): inhibits CPD formation
Smad4
  Smad4 expression in UV treated cells: restored Smad4 expression
Primary keratinocytes; [3]
  CPD levels compared to vehicle-treated UV-irradiated keratinocytes: statistically significant (*p<0.05) reduction in CPD levels
  reduction in CPD levels compared to Calcitriol: comparable reduction in CPD levels to keratinocytes treated with Calcitriol
Primary keratinocytes; 10 μM, FIG. 8B
  inhibition of CPD formation (average intensity of CPD staining) compared to 1,25D: more effective at inhibiting CPD formation than the positive control 1,25D
Primary keratinocytes; 0.5, 1, 2.5 or 5 μM after ssUV, fixed 3 h after UV
  CPD levels, dose response: decreases CPD levels in primary keratinocytes exposed to solar simulated UV-irradiation in a dose dependent manner
